In one test the target is T1, BRAF V600E (Homo sapiens, UniProt P15056+Q96SW2, V600E).
T1 construct: knock-in of the HiBiT tag to the endogenous BRAF V600E locus; host or cells: A375.10 (A375 clonal line, CRISPR HiBiT knock-in at the endogenous BRAF V600E locus)
The experiment in a line: BRAF V600E HiBiT Degradation Assay. It is filed as cell-based. A digest of the protocol: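 Endogenous HiBiT knock-in on BRAF V600E in A375 cells (clone A375.10); 11-point half-log series, top 10 μM, 2, 6 or 24 h at 37° C. Lytic HiBiT luminescence, background-subtracted, normalized to DMSO; 4-parameter fit gives DC50, Emax (residual protein) and IP (inflection point).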

The subject of another test is A375-NRAS^Q61K cells. Kind of test: CTGlo Cell Viability Assay, A375-NRAS^Q61K (A375.11) cells, 96 hours. It is filed as cell-based, human. As to conditions: A375.11 (A375-NRAS^Q61K) cells; for CTGlo A375.11 96 hours Emax / Emax: lowest % viability achieved. A digest of the protocol:
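Viability as CellTiter-Glo ATP luminescence after 96 h compound exposure at 37 °C; A375.11 (BRAF V600E/NRAS Q61K) cells at 250/well, top final concentration 10 μM in half-log steps. Signal was background-corrected and set relative to DMSO controls. A 4-parameter logistic fit gave GI50 (50% crossing) and Emax.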

The mark [1] stands for this setting: A375.10 cells, BRAF V600E, 2 hours, inflection point, read-out: HiBiT-Degradation A375.10 BRAF 2 hours IP.
Setting [2] is: A375.10 cells, BRAF V600E, 2 hours, read-out: HiBiT-Degradation A375.10 BRAF 2 hours DC50.
Where [3] appears, read: A375.10 cells, BRAF V600E, 2 hours, residual protein remaining.
The mark [4] stands for this setting: A375.10 cells, BRAF V600E, 2 hours, residual protein remaining, read-out: HiBiT-Degradation A375.10 BRAF 2 hours Emax.
[5] abbreviates: read-out: HiBiT-Degradation A375.10 BRAF 2 hours DC50, A375.10 cells, BRAF V600E, 2 hours.
Where [6] appears, read: read-out: HiBiT-Degradation A375.10 BRAF 2 hours Emax, A375.10 cells, BRAF V600E, 2 hours, residual protein remaining.
[7] abbreviates: read-out: HiBiT-Degradation A375.10 BRAF 2 hours IP, A375.10 cells, BRAF V600E, 2 hours, inflection point.

Like-named read-outs stand apart in the source and are kept apart here.

This is an account of results in patent publication US20260297060A1, “COMPOUNDS FOR THE DEGRADATION OF MUTANT BRAF” (C4 THERAPEUTICS, INC., priority 2023, published 2026).

T1 sequence (P15056 whole entry V600E): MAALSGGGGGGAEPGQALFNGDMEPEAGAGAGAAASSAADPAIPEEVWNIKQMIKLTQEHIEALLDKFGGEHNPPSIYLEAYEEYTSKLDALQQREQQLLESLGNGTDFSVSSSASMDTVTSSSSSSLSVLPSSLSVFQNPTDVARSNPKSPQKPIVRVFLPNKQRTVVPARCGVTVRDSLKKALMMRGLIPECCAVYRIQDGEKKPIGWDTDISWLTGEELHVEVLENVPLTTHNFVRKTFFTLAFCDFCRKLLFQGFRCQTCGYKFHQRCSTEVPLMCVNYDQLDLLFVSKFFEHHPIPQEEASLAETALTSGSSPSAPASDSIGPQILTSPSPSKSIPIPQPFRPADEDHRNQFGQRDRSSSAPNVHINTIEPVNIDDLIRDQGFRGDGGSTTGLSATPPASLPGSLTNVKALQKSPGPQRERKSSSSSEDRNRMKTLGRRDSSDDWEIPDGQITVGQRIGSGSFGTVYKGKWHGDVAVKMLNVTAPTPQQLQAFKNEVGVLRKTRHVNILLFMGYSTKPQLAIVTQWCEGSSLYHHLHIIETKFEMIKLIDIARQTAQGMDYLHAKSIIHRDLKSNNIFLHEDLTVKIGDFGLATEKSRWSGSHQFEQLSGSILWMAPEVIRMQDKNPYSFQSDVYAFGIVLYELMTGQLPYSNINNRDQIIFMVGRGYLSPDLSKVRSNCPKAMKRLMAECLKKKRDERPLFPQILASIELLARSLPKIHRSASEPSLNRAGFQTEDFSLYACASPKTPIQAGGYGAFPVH
T1 sequence (Q96SW2 whole entry): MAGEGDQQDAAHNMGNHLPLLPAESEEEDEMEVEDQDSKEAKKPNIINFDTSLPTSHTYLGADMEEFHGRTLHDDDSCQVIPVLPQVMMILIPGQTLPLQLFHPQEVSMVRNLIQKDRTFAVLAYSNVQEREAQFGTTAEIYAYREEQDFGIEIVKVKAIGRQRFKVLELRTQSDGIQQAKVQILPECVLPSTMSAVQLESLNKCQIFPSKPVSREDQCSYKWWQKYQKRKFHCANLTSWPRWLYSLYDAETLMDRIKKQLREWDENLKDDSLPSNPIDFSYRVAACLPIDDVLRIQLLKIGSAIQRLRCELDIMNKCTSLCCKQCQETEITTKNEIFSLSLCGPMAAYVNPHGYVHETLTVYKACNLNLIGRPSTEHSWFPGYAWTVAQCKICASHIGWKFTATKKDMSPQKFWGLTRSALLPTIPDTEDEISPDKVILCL
T1 sequence (Q16531 whole entry partner): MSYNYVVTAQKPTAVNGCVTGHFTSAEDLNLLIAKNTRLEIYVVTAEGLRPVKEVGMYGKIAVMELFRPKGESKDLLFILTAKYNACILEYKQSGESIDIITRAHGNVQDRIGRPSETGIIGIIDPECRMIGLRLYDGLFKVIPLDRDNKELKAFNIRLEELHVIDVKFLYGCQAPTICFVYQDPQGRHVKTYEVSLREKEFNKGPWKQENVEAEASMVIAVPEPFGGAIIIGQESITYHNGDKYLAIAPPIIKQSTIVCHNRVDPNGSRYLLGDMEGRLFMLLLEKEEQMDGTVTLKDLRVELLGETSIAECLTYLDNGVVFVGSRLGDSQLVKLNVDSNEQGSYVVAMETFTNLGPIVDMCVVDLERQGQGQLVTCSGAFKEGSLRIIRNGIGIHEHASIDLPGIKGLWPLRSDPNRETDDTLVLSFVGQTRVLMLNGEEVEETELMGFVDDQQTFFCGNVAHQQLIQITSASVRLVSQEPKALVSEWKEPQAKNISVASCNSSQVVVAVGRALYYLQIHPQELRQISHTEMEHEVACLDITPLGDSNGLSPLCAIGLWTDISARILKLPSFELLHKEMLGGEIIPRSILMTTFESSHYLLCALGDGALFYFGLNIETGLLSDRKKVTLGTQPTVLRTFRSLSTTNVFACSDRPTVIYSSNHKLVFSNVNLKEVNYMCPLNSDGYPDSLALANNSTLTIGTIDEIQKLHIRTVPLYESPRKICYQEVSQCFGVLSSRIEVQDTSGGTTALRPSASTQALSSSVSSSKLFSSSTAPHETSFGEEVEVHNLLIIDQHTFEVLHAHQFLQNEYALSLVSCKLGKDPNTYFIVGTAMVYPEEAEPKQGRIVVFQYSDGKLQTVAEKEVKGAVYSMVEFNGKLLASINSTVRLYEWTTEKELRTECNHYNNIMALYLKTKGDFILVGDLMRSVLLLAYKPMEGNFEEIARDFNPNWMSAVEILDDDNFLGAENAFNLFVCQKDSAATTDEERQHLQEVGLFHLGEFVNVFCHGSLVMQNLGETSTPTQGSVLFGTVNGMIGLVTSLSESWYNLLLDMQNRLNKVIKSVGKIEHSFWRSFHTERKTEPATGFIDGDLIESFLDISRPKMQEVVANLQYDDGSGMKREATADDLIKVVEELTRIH

One may read the GI50 as the concentration giving 50% growth inhibition. A low value points to greater sensitivity of the cells. In the case of `CN(CCO)S(=O)(=O)Nc1ccc(F)c(Oc2ccc3ncn(C4CC5(CCN(C6CCC(c7cc8c(cc7F)c(N7CCC(=O)NC7=O)nn8C)CC6)CC5)C4)c(=O)c3c2)c1C#N` (single isomer, unassigned) [Compound 82, 6-[2-cyano-6-fluoro-3-[[2-hydroxyethyl(methyl)sulfamoyl]amino]phenoxy]-3-[7-[4-[3-(2,4-dioxohexahydropyrimidin-1-yl)-5-fluoro-1-methyl-indazol-6-yl]cyclohexyl]-7-azaspiro[3.5]nonan-2-yl]-4-oxo-quinazoline], the DC50 at BRAF V600E (setting [1]) is < 1000 nM; on BRAF V600E (setting [2]), 1000 to 10000 nM; at BRAF V600E (A375.10 cells, BRAF V600E, 6 hours, inflection point, read-out: HiBiT-Degradation A375.10 BRAF 6 hours IP), < 1000 nM; on BRAF V600E (A375.10 cells, BRAF V600E, 6 hours, read-out: HiBiT-Degradation A375.10 BRAF 6 hours DC50) it was < 1000 nM; on BRAF V600E (A375.10 cells, HiBiT, BRAF V600E, 24 hours, read-out: HiBiT-Degradation A375.10 BRAF 24 hours DC50) it was < 1000 nM; on BRAF V600E (A375.10 cells, HiBiT, BRAF V600E, 24 hours, read-out: HiBiT-Degradation A375.10 BRAF 24 hours IP), < 1000 nM. Moreover, the “HiBiT-Degradation A375.10 BRAF 2 hours Emax” value at BRAF V600E (setting [3]) is “** (<90% and >50%)”. Besides, the “HiBiT-Degradation A375.10 BRAF 6 hours Emax” value at BRAF V600E (A375.10 cells, BRAF V600E, 6 hours, residual protein remaining) is “*** (<=50%)”. Also, the “HiBiT-Degradation A375.10 BRAF 24 hours Emax” value at BRAF V600E (A375.10 cells, HiBiT, BRAF V600E, 24 hours) is reported as “*** (<=50%)”. In the test on A375-NRAS^Q61K cells, this compound returned a 50% growth inhibitory concentration (GI50) of 1000 to 10000 nM. Further, in the test with A375-NRAS^Q61K cells, the “CTGlo A375.11 96 hours Emax” value was “** (<90% and >50%)”.
Consider `CCN(C)S(=O)(=O)Nc1ccc(F)c(C(=O)c2ccc3ncn(C4CC5(C4)CN(C4CC6(C4)CN(c4cc7c(cc4F)c(N4CCC(=O)NC4=O)nn7C)C6)C5)c(=O)c3c2)c1F` (stereo not shown) [Compound 306, 3-[2-[2-[3-(2,4-dioxohexahydropyrimidin-1-yl)-5-fluoro-1-methyl-indazol-6-yl]-2-azaspiro[3.3]heptan-6-yl]-2-azaspiro[3.3]heptan-6-yl]-6-[3-[[ethyl(methyl)sulfamoyl]amino]-2,6-difluoro-benzoyl]-4-oxo-quinazoline], for which the DC50 on BRAF V600E (setting [1]) and on BRAF V600E (setting [2]) was < 1000 nM throughout. Moreover, the Emax at BRAF V600E (setting [4]) was 50 to 90%; in the test with A375-NRAS^Q61K cells (Homo sapiens, 96 h), 50 to 90%. Moreover, in the test with A375-NRAS^Q61K cells (Homo sapiens, 96 h), the GI50 was > 10000 nM.
Consider `CCN(C)S(=O)(=O)Nc1ccc(F)c(Oc2ccc3ncn(C4CC5(CCN(C6CC7(CCN(c8cc9c(cc8F)c(N8CCC(=O)NC8=O)nn9C)CC7)C6)C5)C4)c(=O)c3c2)c1C#N` (stereo not shown) [Compound 266, 6-[2-cyano-3-[[ethyl(methyl)sulfamoyl]amino]-6-fluoro-phenoxy]-3-[6-[7-[3-(2,4-dioxohexahydropyrimidin-1-yl)-5-fluoro-1-methyl-indazol-6-yl]-7-azaspiro[3.5]nonan-2-yl]-6-azaspiro[3.4]octan-2-yl]-4-oxo-quinazoline], for which the DC50 at BRAF V600E (setting [1]) and on BRAF V600E (setting [2]) was < 1000 nM each time. In addition, the Emax at BRAF V600E (setting [4]) lay within 50 to 90%; in the test on A375-NRAS^Q61K cells (Homo sapiens, 96 h), 50 to 90%. Further, the GI50 with A375-NRAS^Q61K cells (Homo sapiens, 96 h) is > 10000 nM.
In the case of `CN(CCO)S(=O)(=O)Nc1ccc(F)c(Oc2ccc3ncn([C@H]4COC5(CCN([C@H]6C[C@@H](c7ccc(NC8CCC(=O)NC8=O)cc7F)C6)CC5)C4)c(=O)c3c2)c1C#N` (stereo partly drawn) [Compound 168, (3R)-3-[6-[2-cyano-6-fluoro-3-[[2-hydroxyethyl(methyl)sulfamoyl]amino]phenoxy]-4-oxo-quinazolin-3-yl]-8-[3-[4-[(2,6-dioxo-3-piperidyl)amino]-2-fluoro-phenyl]cyclobutyl]-1-oxa-8-azaspiro[4.5]decane], the DC50 on BRAF V600E (setting [1]) and on BRAF V600E (setting [2]) was < 1000 nM in each case. Moreover, the Emax lay within 50 to 90% on BRAF V600E (setting [4]) and 50 to 90% in the test with A375-NRAS^Q61K cells (Homo sapiens, 96 h). Further, in the test on A375-NRAS^Q61K cells (Homo sapiens, 96 h), the GI50 was > 10000 nM.
As for `CCN(C)S(=O)(=O)Nc1ccc(F)c(Oc2ccc3ncn(C4CCC5(CC4)CCN(C4CCC(c6ccc(NC7CCC(=O)NC7=O)cc6F)CC4)CC5)c(=O)c3c2)c1C#N` (single isomer, unassigned) [Compound 10, 9-[6-[2-cyano-3-[[ethyl(methyl)sulfamoyl]amino]-6-fluoro-phenoxy]-4-oxo-quinazolin-3-yl]-3-[4-[4-[(2,6-dioxo-3-piperidyl)amino]-2-fluoro-phenyl]cyclohexyl]-3-azaspiro[5.5]undecane], the DC50 is < 1000 nM on BRAF V600E (setting [1]) and > 10000 nM on BRAF V600E (setting [2]). Also, the Emax on BRAF V600E (setting [4]) is 50 to 90%. The GI50 with A375-NRAS^Q61K cells was in the range of 1000 to 10000 nM. Also, the “CTGlo A375.11 96 hours Emax” value with A375-NRAS^Q61K cells is “*** (<=50%)”.
For the compound `CO[C@H]1CCN(S(=O)(=O)Nc2ccc(F)c(Oc3ccc4ncn(C5CC6(CCN(C7CC8(C7)CN(c7cc9c(cc7F)c(N7CCC(=O)NC7=O)nn9C)C8)CC6)C5)c(=O)c4c3)c2C#N)C1` (stereo partly drawn) [Compound 272, (3S)-N-[2-cyano-3-[3-[7-[2-[3-(2,4-dioxohexahydropyrimidin-1-yl)-5-fluoro-1-methyl-indazol-6-yl]-2-azaspiro[3.3]heptan-6-yl]-7-azaspiro[3.5]nonan-2-yl]-4-oxo-quinazolin-6-yl]oxy-4-fluoro-phenyl]-3-methoxy-pyrrolidine-1-sulfonamide], the DC50 at BRAF V600E (setting [5]) and at BRAF V600E (setting [7]) was < 1000 nM each time. Moreover, the Emax was < 50% on BRAF V600E (setting [6]) and 50 to 90% with A375-NRAS^Q61K cells (Homo sapiens, 96 h). In addition, in the test with A375-NRAS^Q61K cells (Homo sapiens, 96 h), the GI50 is > 10000 nM.
For the compound `Cn1nc(N2CCC(=O)NC2=O)c2cc(F)c(N3CC4(CC(N5CCC6(CC5)CC(c5cnc7ccc(Oc8c(F)ccc(NS(=O)(=O)N9CC[C@@H](F)C9)c8C#N)cc7n5)C6)C4)C3)cc21` [Compound 265, (3R)-N-[2-cyano-3-[3-[7-[2-[3-(2,4-dioxohexahydropyrimidin-1-yl)-5-fluoro-1-methyl-indazol-6-yl]-2-azaspiro [3.3]heptan-6-yl]-7-azaspiro [3.5]nonan-2-yl]quinoxalin-6-yl]oxy-4-fluoro-phenyl]-3-fluoro-pyrrolidine-1-sulfonamide], the Emax on BRAF V600E (setting [4]) is < 50%; with A375-NRAS^Q61K cells (Homo sapiens, 96 h) it was < 50%. The DC50 at BRAF V600E (setting [5]) and at BRAF V600E (setting [7]) was < 1000 nM throughout. For the same compound, in the test on A375-NRAS^Q61K cells (Homo sapiens, 96 h), the GI50 is < 1000 nM.
`CN(CCO)S(=O)(=O)Nc1ccc(F)c(Oc2ccc3ncc([C@H]4COC5(CCN(C6CCC(c7cc8c(cc7F)c(N7CCC(=O)NC7=O)nn8C)CC6F)CC5)C4)nc3c2)c1C#N` (single isomer, unassigned) [Compound 170]: the DC50 was < 1000 nM at BRAF V600E (setting [1]) and > 10000 nM on BRAF V600E (setting [2]). Also, the Emax on BRAF V600E (setting [4]) was in the range of 50 to 90%; with A375-NRAS^Q61K cells (Homo sapiens, 96 h), 50 to 90%. The same compound registered a GI50 in the test on A375-NRAS^Q61K cells (Homo sapiens, 96 h) of 1000 to 10000 nM.
As to `Cn1nc(N2CCC(=O)NC2=O)c2cc(F)c(C3CCC(N4CCC5(CC4)CC(c4cnc6ccc(Oc7c(F)ccc(NS(=O)(=O)N8CC[C@@H](F)C8)c7C#N)cc6n4)C5)CC3)cc21` (stereo partly drawn) [Compound 267, (3R)-N-[2-cyano-3-[3-[7-[4-[3-(2,4-dioxohexahydropyrimidin-1-yl)-5-fluoro-1-methyl-indazol-6-yl]cyclohexyl]-7-azaspiro[3.5]nonan-2-yl]quinoxalin-6-yl]oxy-4-fluoro-phenyl]-3-fluoro-pyrrolidine-1-sulfonamide], the DC50 on BRAF V600E (setting [1]) and on BRAF V600E (setting [2]) was < 1000 nM each time. Further, the Emax on BRAF V600E (setting [6]) was < 50%; in the test with A375-NRAS^Q61K cells (Homo sapiens, 96 h), < 50%. In addition, in the test on A375-NRAS^Q61K cells (Homo sapiens, 96 h), the GI50 is < 1000 nM.
Regarding `CCN(C)S(=O)(=O)Nc1ccc(F)c(Oc2ccc3ncn(C4CC5(CCN(C6CC7(C6)CN(c6cc8c(cc6F)c(N6CCC(=O)NC6=O)nn8C)C7)C5)C4)c(=O)c3c2)c1C#N` (single isomer, unassigned) [Compound 302, 6-[2-cyano-3-[[ethyl(methyl)sulfamoyl]amino]-6-fluoro-phenoxy]-3-[6-[2-[3-(2,4-dioxohexahydropyrimidin-1-yl)-5-fluoro-1-methyl-indazol-6-yl]-2-azaspiro[3.3]heptan-6-yl]-6-azaspiro[3.4]octan-2-yl]-4-oxo-quinazoline], the DC50 at BRAF V600E (setting [2]) was < 1000 nM. Besides, the GI50 with A375-NRAS^Q61K cells is < 1000 nM.
On to `CCN(C)S(=O)(=O)Nc1ccc(F)c(Nc2ccc3ncn([C@H]4COC5(CCN(C6CCC(c7cc8c(cc7F)c(N7CCC(=O)NC7=O)nn8C)CC6)CC5)C4)c(=O)c3c2)c1C#N` (single isomer, unassigned) [Compound 65], for which the DC50 on BRAF V600E (setting [1]) is < 1000 nM. Besides, on BRAF V600E (setting [2]), the DC50 is 1000 to 10000 nM. Further, at BRAF V600E (setting [3]), the “HiBiT-Degradation A375.10 BRAF 2 hours Emax” value is “** (<90% and >50%)”. In the test with A375-NRAS^Q61K cells, the GI50 was > 10000 nM; the “CTGlo A375.11 96 hours Emax” value is “** (<90% and >50%)”.
